Assay results as given in US12115256B2, “Targeted liposomal gemcitabine and methods thereof” (L.E.A.F. HOLDINGS GROUP LLC, priority 2016, dated 2024).
Like-named read-outs stand apart in the source and are kept apart here.

Tests used:
[1] = biological target: Folate receptor α (FRα) (Homo sapiens, UniProt P15328); conditions: read-out: Binding affinity, Kd; cited from earlier work
[2] = biological target: T1, Reduced folate carrier (RFC) (Homo sapiens, UniProt P41440); conditions: read-out: Binding affinity, Km; cited from earlier work
T1 sequence (P41440 1-591): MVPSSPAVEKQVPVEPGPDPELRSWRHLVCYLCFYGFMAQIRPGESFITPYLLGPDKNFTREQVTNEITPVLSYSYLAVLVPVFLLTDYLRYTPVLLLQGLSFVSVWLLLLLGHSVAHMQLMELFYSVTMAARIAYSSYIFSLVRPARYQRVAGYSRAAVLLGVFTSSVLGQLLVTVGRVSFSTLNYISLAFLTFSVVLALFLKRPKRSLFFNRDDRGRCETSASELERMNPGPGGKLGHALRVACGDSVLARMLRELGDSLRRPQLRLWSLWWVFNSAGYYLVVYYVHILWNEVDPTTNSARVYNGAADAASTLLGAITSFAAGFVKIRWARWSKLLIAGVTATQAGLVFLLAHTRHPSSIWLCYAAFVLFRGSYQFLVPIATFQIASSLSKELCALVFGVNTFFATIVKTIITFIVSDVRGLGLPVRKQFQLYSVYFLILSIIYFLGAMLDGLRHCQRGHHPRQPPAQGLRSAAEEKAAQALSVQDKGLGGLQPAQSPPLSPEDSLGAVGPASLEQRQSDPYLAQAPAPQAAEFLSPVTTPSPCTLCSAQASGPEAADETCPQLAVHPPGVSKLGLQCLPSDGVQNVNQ

[3] = test system: SKBR3 breast cancer cells; assay: MTS cell proliferation assay, SKBR3; assay type: cell-based; conditions: Homo sapiens, SK-BR-3, 96 h, 4 days
Description: (§1) Cells lines used in the experiments are commercially available from sources such as the ATCC (American Type Culture Collection of Manassas, Virginia, U.S.A). The cell lines, their ATCC accession numbers and growth conditions are listed below. • NCI-H2452 (ATCC® CRL-5946TH); RPMI-1640 (Cat. #30-2001); 10% HI FBS; 1% Pen/Strep; 1% L-Glutamine. • PANC-1 (ATCC® CRL-1469TH); Dulbecco's Modified Eagle's Medium (DMEM) (ATCC® 30-2002TM) 10% HI FBS; 1% Pen/Strep; 1% L-Glutamine • SKBR3; McCoy 5A Medium; 10% HI FBS; 1% Pen/Strep; 1% L-Glutamine.
(§2) Cancer cell lines were seeded in 96 well plates on day 0 at optimal cell numbers. On day 1, drug formulations were added at 2-fold serial dilutions. The cells were incubated for 3-5 days and the level of inhibition of cellular proliferation was measured by the MTS assay (3-(4,5-dimethylthiazol-2-yl)-5-(3-carboxymethoxyphenyl)-2-(4-sulfophenyl)-2H-tetrazolium assay). The commercially available MTS Cell Proliferation Assay Kit (Colorimetric) (197010) is a colorimetric sensitive quantification of viable cells in proliferation and cytotoxicity assay. […]
(§3) On day 4, the effect on cellular proliferation was measured with MTS assay. […] The plates were incubated for 2 hours at 37° C. and the absorbance was measured at 490 nm. […]

[4] = test system: CD34+ stem cells (hematopoietic progenitor cells) differentiating into neutrophils; assay type: cell-based; conditions: human, 2 days
Description: The level of a molecule called CD15 is elevated on more mature neutrophils. This molecule is elevated on cells in the circles drawn on the plots.
FIG. 8. Neutrophil differentiation assay. One of the major side effects from gemcitabine treatment is the reduction of neutrophils in the bloodstream that counter infections. This is the result of CD34+ stem cells not differentiating, or developing, into mature neutrophils in the bone marrow. We measured the effect of targeted liposomal gemcitabine on neutrophil differentiation compared to the same dose of gemcitabine (10 and 50 μM.) Hematopoietic progenitor cells (CD34+) were purchased and treated with a panel of growth factors to induce neutrophil differentiation.
CD34+ stem cells were cultured without (A) or with (B) cytokines (growth factors) that induce neutrophil differentiation in vitro, including stem cell factor, IL-3, and […] for 2 days. […] By day 2, there is a dramatic increase in mature neutrophils depicted in the oval. […] The cells within the drawn gate (FIG. 8B) are larger, more complex maturing neutrophils that are lacking in FIG. 8A.
In more detail, experiments were performed as follows: CD34+ stem cells were obtained from ATCC. CD34+ cells were thawed at 37° C. for 1 minute. While on ice, the cells were transferred to cold stem cell medium (“StemSpan SFEM”—Stem Cell Tech. cat. #9650), 10% heat […] fetal bovine serum (HI FBS.) Each vial contained approximated 5×10^5 cell/ml. The cells were placed in 96 well tissue culture plates 35,000 cell/well.
The neutrophils GROWTH media contained 100 ng/ml of stem cell factor human (SCF-Sigma H8416, lot #MKBT8036V), 20 ng/ml of granulocyte colony-stimulation factor, human (G-CSF-Sigma H5541, lot #SLBC9602V), 10 ng/ml of IL3 recombinant human (Sigma SRP3090, lot #1008AFC13) in StemSpam media as above.
The cells were also treated as follows 1) StemSpam media alone with no growth cytokines; 2) StemSpam media+growth cytokines, and 3) Gemcitabine, Targeted Liposomal Gemcitabine and non-Targeted Liposomal Gemcitabine in amounts as indicated. […]

[5] = test system: HPAF-II pancreatic cancer cells; assay: MTS cell proliferation assay, HPAF-II; assay type: cell-based; conditions: Homo sapiens, 96 h, 4 days
Experimental: HPAF-II ATCC CRL-1997; Eagle's Minimum Essential Medium (EMEM) (ATCC® 30-2003Tm)); 10% HI FBS; 1% Pen/Strep; 1% L-Glutamine.
Cancer cell lines were seeded in 96 well plates on day 0 at optimal cell numbers. On day 1, drug formulations were added at 2-fold serial dilutions. The cells were incubated for 3-5 days and the level of inhibition of cellular proliferation was measured by the MTS assay (3-(4,5-dimethylthiazol-2-yl)-5-(3-carboxymethoxyphenyl)-2-(4-sulfophenyl)-2H-tetrazolium assay). The commercially available MTS Cell Proliferation Assay Kit (Colorimetric) (197010) is a colorimetric sensitive quantification of viable cells in proliferation and cytotoxicity assay. The assay is based on the reduction of MTS tetrazolium compound by viable cells to generate a colored formazan product that is soluble in cell culture media.
The MTS experiments are performed as follows: The night before, the cells are seeded according to the amount of cells required for each cell line in 96 well tissue culture plate. Final volume in each well is 100 μL (see Table of cell lines for reference; all cell lines obtained from ATCC).
The seeded cells are incubated at 37° C. and 5% CO 2 overnight. […]
as §3

[6] = test system: PANC-1 pancreatic cancer cells; assay: MTS cell proliferation assay, PANC-1; assay type: cell-based; conditions: Homo sapiens, 96 h, 4 days
Description: as §1, §2, §3

[7] = test system: NCI-H2452 lung (mesothelioma) cancer cells; assay: MTS cell proliferation assay, NCI-H2452; assay type: cell-based; conditions: Homo sapiens, 96 h, 4 days, MTS (FIG. 2)
Description: as §1, §2, §3

Sequence of Folate receptor α (FRα) (P15328 25-234, species assumed): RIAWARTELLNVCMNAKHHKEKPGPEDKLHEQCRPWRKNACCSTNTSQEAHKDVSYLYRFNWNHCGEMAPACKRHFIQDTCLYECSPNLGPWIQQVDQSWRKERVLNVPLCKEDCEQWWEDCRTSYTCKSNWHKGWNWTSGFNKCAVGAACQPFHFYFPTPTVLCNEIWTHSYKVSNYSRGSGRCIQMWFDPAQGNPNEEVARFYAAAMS

## CN1c2c(nc(N)[nH]c2=O)NCC1CNc1ccc(C(=O)N[C@@H](CCC(=O)O)C(=O)O)cc1 (some centres unmarked) [5-mTHF, 5-methyltetrahydrofolate]
[1]
  Kd: 0.001 to 0.01 µM
[2]
  Km: 1 to 10 µM

## Nc1ccn([C@@H]2O[C@H](CO)[C@@H](O)C2(F)F)c(=O)n1 [Gemcitabine, gemcitabine]
[3]
  IC50: 297 µM
[4]
  Number of live cells within the neutrophil gate (CD15+): less than 100
[4]; 10 μM
  Percentage of live cells within the neutrophil gate: less than 5%
[4]; 50 μM
  Percentage of live cells within the neutrophil gate: less than 20%
[5]
  IC50: 9.11 µM
[6]
  IC50: 11 µM
[7]
  IC50: 30.4 µM

## Nc1nc2ncc(CNc3ccc(C(=O)N[C@@H](CCC(=O)O)C(=O)O)cc3)nc2c(=O)[nH]1 [folic acid]
[2]
  Km: 200 to 400 µM

## CN(Cc1cnc2nc(N)nc(N)c2n1)c1ccc(C(=O)N[C@@H](CCC(=O)O)C(=O)O)cc1 [methotrexate]
[2]
  Km: 1 to 5 µM
